Laboratory results from patent US20030032003A1, “IN VIVO SELECTION” (priority 2000, published 2003).

Tests used:
Hprt +/+ mice = assay: Histopathological analysis of mouse tissues after 6TG
Hprt −/− mice = assay: as above
[1] = Hprt +/+, 6TG sublethal 25 mg/kg, 2 mice
[2] = Hprt −/−, 6TG lethal 1148-2561 mg/kg, 3 mice
[3] = Hprt −/−, 6TG sublethal 25-720 mg/kg, 11 mice

Compound: Nc1nc(S)c2[nH]cnc2n1 [6TG, 2-amino-6-merkaptopurine]
- Spleen Necrosis, average of lesion severity grade (Hprt +/+ mice; Hprt +/+, 6TG lethal 50-720 mg/kg, 7 mice): 2.0 ± 1.3
- Bone marrow Depletion, average of lesion severity grade (Hprt +/+ mice; [1]): 3.5 ± 0.5
- Bone marrow Necrosis, average of lesion severity grade (Hprt +/+ mice; [1]): 0.5 ± 0.5
- Liver Atrophy necrosis, average of lesion severity grade (Hprt +/+ mice; [1]): 2.5 ± 0.5
- starting dose of liver lesions (necrosis and atrophy of hepatocytes) (Hprt +/+ mice; Hprt wildtype mice): 25 mg/kg
- lowest dose with liver centrilobular hypertrophy (Hprt +/+ mice; wildtype mice): 150 mg/kg
- lowest dose with liver fatty change (Hprt +/+ mice; wildtype mice): 225 mg/kg
- starting dose of atrophy and/or necrosis of gastrointestinal epithelium (Hprt +/+ mice; wildtype mice): 50 mg/kg
- hyperplasia dose below doses causing toxicity (Hprt −/− mice; Hprt deficient animals): 40 fold
- dose at which liver necrosis appears (Hprt −/− mice; Hprt deficient mice): ≥ 507 mg/kg
- Kidneys Glomerulopathy, severity grade (Hprt −/− mice; Hprt −/−, 25 mg/kg i.p.): 1
- Kidneys Intersticial inflamation, severity grade (Hprt −/− mice; Hprt −/−, 25 mg/kg i.p.): 2
- Liver Centrilobular hypertrophy, severity grade (Hprt −/− mice; Hprt −/−, 25 mg/kg i.p.): 3
- Bone marrow Hypercellular, severity grade (Hprt −/− mice; Hprt −/−, 50 mg/kg i.p.): 1.0 ± 1.0
- Liver Centrilobular hypertrophy, severity grade (Hprt −/− mice; Hprt −/−, 50 mg/kg i.p.): 1.5 ± 0.5
- Liver Fatty change, severity grade (Hprt −/− mice; Hprt −/−, 50 mg/kg i.p.): 1.0 ± 1.0
- Bone marrow Hypercellular, severity grade (Hprt −/− mice; Hprt −/−, 100 mg/kg i.p.): 1
- Liver Centrilobular hypertrophy, severity grade (Hprt −/− mice; Hprt −/−, 100 mg/kg i.p.): 2
- Liver Extramedullary hematopoesis, severity grade (Hprt −/− mice; Hprt −/−, 100 mg/kg i.p.): 1
- Liver Fatty change, severity grade (Hprt −/− mice; Hprt −/−, 100 mg/kg i.p.): 1
- Bone marrow Hypercellular, severity grade (Hprt −/− mice; Hprt −/−, 150 mg/kg i.p.): 2
- Kidneys Glomerulopathy, severity grade (Hprt −/− mice; Hprt −/−, 150 mg/kg i.p.): 3
- Kidneys Intersticial inflamation, severity grade (Hprt −/− mice; Hprt −/−, 150 mg/kg i.p.): 2
- Kidneys Tubule basophilia, severity grade (Hprt −/− mice; Hprt −/−, 150 mg/kg i.p.): 1
- Kidneys Tubule dilatation, severity grade (Hprt −/− mice; Hprt −/−, 150 mg/kg i.p.): 2
- Liver Centrilobular hypertrophy, severity grade (Hprt −/− mice; Hprt −/−, 150 mg/kg i.p.): 2
- Liver Extramedullary hematopoesis, severity grade (Hprt −/− mice; Hprt −/−, 150 mg/kg i.p.): 1
- Liver Fatty change, severity grade (Hprt −/− mice; Hprt −/−, 150 mg/kg i.p.): 3
- Bone marrow Hypercellular, severity grade (Hprt −/− mice; Hprt −/−, 225 mg/kg i.p.): 2
- Kidneys Glomerulopathy, severity grade (Hprt −/− mice; Hprt −/−, 225 mg/kg i.p.): 2
- Kidneys Intersticial inflamation, severity grade (Hprt −/− mice; Hprt −/−, 225 mg/kg i.p.): 2
- Kidneys Tubule basophilia, severity grade (Hprt −/− mice; Hprt −/−, 225 mg/kg i.p.): 2
- Kidneys Tubule dilatation, severity grade (Hprt −/− mice; Hprt −/−, 225 mg/kg i.p.): 2
- Liver Extramedullary hematopoesis, severity grade (Hprt −/− mice; Hprt −/−, 225 mg/kg i.p.): 1
- Liver Fatty change, severity grade (Hprt −/− mice; Hprt −/−, 225 mg/kg i.p.): 2
- Bone marrow Hypercellular, severity grade (Hprt −/− mice; Hprt −/−, 338 mg/kg i.p.): 1
- Kidneys Glomerulopathy, severity grade (Hprt −/− mice; Hprt −/−, 338 mg/kg i.p.): 1
- Kidneys Intersticial inflamation, severity grade (Hprt −/− mice; Hprt −/−, 338 mg/kg i.p.): 2
- Kidneys Tubule basophilia, severity grade (Hprt −/− mice; Hprt −/−, 338 mg/kg i.p.): 1
- Kidneys Tubule dilatation, severity grade (Hprt −/− mice; Hprt −/−, 338 mg/kg i.p.): 1
- Liver Centrilobular hypertrophy, severity grade (Hprt −/− mice; Hprt −/−, 338 mg/kg i.p.): 1
- Liver Extramedullary hematopoesis, severity grade (Hprt −/− mice; Hprt −/−, 338 mg/kg i.p.): 1
- Liver Fatty change, severity grade (Hprt −/− mice; Hprt −/−, 338 mg/kg i.p.): 2
- Spleen Lymphoid depletion, severity grade (Hprt −/− mice; Hprt −/−, 338 mg/kg i.p.): 1
- Bone marrow Hypercellular, severity grade (Hprt −/− mice; Hprt −/−, 507 mg/kg i.p.): 1.5 ± 0.5
- Kidneys Tubule basophilia, severity grade (Hprt −/− mice; Hprt −/−, 507 mg/kg i.p.): 1.5 ± 0.5
- Kidneys Tubule dilatation, severity grade (Hprt −/− mice; Hprt −/−, 507 mg/kg i.p.): 0.5 ± 0.5
- Liver Atrophy necrosis, severity grade (Hprt −/− mice; Hprt −/−, 507 mg/kg i.p.): 1.0 ± 0.0
- Liver Centrilobular hypertrophy, severity grade (Hprt −/− mice; Hprt −/−, 507 mg/kg i.p.): 2.0 ± 0.0
- Liver Extramedullary hematopoesis, severity grade (Hprt −/− mice; Hprt −/−, 507 mg/kg i.p.): 1.5 ± 0.5
- Liver Fatty change, severity grade (Hprt −/− mice; Hprt −/−, 507 mg/kg i.p.): 2.5 ± 0.5
- Bone marrow Hypercellular, severity grade (Hprt −/− mice; Hprt −/−, 720 mg/kg i.p.): 1.5 ± 0.5
- Kidneys Glomerulopathy, severity grade (Hprt −/− mice; Hprt −/−, 720 mg/kg i.p.): 0.5 ± 0.5
- Kidneys Intersticial inflamation, severity grade (Hprt −/− mice; Hprt −/−, 720 mg/kg i.p.): 1.5 ± 0.5
- Kidneys Tubule basophilia, severity grade (Hprt −/− mice; Hprt −/−, 720 mg/kg i.p.): 1.5 ± 0.5
- Kidneys Tubule dilatation, severity grade (Hprt −/− mice; Hprt −/−, 720 mg/kg i.p.): 1.5 ± 0.5
- Liver Atrophy necrosis, severity grade (Hprt −/− mice; Hprt −/−, 720 mg/kg i.p.): 0.5 ± 0.5
- Liver Centrilobular hypertrophy, severity grade (Hprt −/− mice; Hprt −/−, 720 mg/kg i.p.): 1.0 ± 0.0
- Liver Extramedullary hematopoesis, severity grade (Hprt −/− mice; Hprt −/−, 720 mg/kg i.p.): 1.0 ± 0.0
- Liver Fatty change, severity grade (Hprt −/− mice; Hprt −/−, 720 mg/kg i.p.): 1.5 ± 0.5
- Spleen Lymphoid depletion, severity grade (Hprt −/− mice; Hprt −/−, 720 mg/kg i.p.): 0.5 ± 0.5
- Bone marrow Depletion, average of lesion severity grade (Hprt −/− mice; [2]): 2.3 ± 0.6
- Bone marrow Necrosis, average of lesion severity grade (Hprt −/− mice; [2]): 3.0 ± 0.0
- Gastric epithelium Atrophy, average of lesion severity grade (Hprt −/− mice; [2]): 0.6 ± 0.6
- Intestinal epithelium Atrophy, average of lesion severity grade (Hprt −/− mice; [2]): 0.6 ± 0.6
- Kidneys Tubule dilatation, average of lesion severity grade (Hprt −/− mice; [2]): 0.3 ± 0.6
- Liver Atrophy necrosis, average of lesion severity grade (Hprt −/− mice; [2]): 1.3 ± 0.6
- Liver Centrilobular hypertrophy, average of lesion severity grade (Hprt −/− mice; [2]): 1.0 ± 1.7
- Liver Extramedullary hematopoesis, average of lesion severity grade (Hprt −/− mice; [2]): 0.3 ± 0.6
- Liver Fatty change, average of lesion severity grade (Hprt −/− mice; [2]): 3.3 ± 0.6
- Spleen Lymphoid depletion, average of lesion severity grade (Hprt −/− mice; [2]): 3.7 ± 0.6
- Spleen Necrosis, average of lesion severity grade (Hprt −/− mice; [2]): 2.0 ± 1.7
- Bone marrow Hypercellular, average of lesion severity grade (Hprt −/− mice; [3]): 1.2 ± 0.6
- Kidneys Glomerulopathy, average of lesion severity grade (Hprt −/− mice; [3]): 1.0 ± 1.0
- Kidneys Intersticial inflamation, average of lesion severity grade (Hprt −/− mice; [3]): 1.5 ± 1.0
- Kidneys Tubule basophilia, average of lesion severity grade (Hprt −/− mice; [3]): 0.9 ± 0.8
- Kidneys Tubule dilatation, average of lesion severity grade (Hprt −/− mice; [3]): 0.9 ± 0.9
- Liver Atrophy necrosis, average of lesion severity grade (Hprt −/− mice; [3]): 0.2 ± 0.4
- Liver Centrilobular hypertrophy, average of lesion severity grade (Hprt −/− mice; [3]): 1.2 ± 0.8
- Liver Extramedullary hematopoesis, average of lesion severity grade (Hprt −/− mice; [3]): 0.8 ± 0.5
- Liver Fatty change, average of lesion severity grade (Hprt −/− mice; [3]): 1.6 ± 0.9
- Spleen Lymphoid depletion, average of lesion severity grade (Hprt −/− mice; [3]): 02 ± 0.4
